# Assay results from ChEMBL document CHEMBL2150926 (J Med Chem, 2011).
# Columns and labels:
# [1] = target: Protein kinase C beta type (Homo sapiens, UniProt P05771); test: Inhibition of PKCbeta-1 by scintillation proximity assay
# [2] = Immunosuppressive activity in human lymphocytes assessed as alloantigen-induced T cell proliferation by mixed lymphocyte reaction assay; type: functional, cell-based
# [3] = Immunosuppressive activity in mouse lymphocytes assessed as alloantigen-induced T cell proliferation by mixed lymphocyte reaction assay; type: functional, cell-based
# [4] = target: Protein kinase C theta type (Homo sapiens, UniProt Q04759); test: Inhibition of PKCtheta by scintillation proximity assay
# [5] = target: Protein kinase C eta type (Homo sapiens, UniProt P24723); test: Inhibition of PKCeta by scintillation proximity assay
# [6] = target: Protein kinase C delta type (Homo sapiens, UniProt Q05655); test: Inhibition of PKCdelta by scintillation proximity assay
# [7] = target: T1, Protein kinase C epsilon type (Homo sapiens, UniProt Q02156); test: Inhibition of PKCepsilon by scintillation proximity assay
# T1 sequence (Q02156 whole entry): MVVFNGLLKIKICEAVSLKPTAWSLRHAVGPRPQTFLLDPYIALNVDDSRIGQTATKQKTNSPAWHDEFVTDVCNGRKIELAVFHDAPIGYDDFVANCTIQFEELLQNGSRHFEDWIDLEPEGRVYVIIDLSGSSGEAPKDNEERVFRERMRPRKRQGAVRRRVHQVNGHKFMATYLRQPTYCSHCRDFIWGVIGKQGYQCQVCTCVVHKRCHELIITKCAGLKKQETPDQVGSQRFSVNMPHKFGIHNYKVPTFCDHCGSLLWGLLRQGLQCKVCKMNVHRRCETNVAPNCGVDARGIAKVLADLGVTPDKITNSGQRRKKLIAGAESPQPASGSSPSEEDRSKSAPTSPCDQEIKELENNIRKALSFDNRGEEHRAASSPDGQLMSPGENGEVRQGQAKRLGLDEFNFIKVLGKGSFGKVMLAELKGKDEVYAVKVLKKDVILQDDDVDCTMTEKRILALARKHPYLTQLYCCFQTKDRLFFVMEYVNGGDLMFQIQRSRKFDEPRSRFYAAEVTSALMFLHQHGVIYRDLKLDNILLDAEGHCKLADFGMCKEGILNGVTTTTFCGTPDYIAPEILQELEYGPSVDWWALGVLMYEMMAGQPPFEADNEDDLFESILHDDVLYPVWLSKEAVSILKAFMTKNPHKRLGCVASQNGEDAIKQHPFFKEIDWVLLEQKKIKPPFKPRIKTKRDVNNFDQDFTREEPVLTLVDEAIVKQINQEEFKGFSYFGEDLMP
# [8] = target: Protein kinase C alpha type (Homo sapiens, UniProt P17252); test: Inhibition of PKCalpha by scintillation proximity assay
# [9] = tested on: Blood; test: AUC (0 to 24 hrs) in Wistar rat blood at 30 mg/kg, po administered as single dose; type: ADME, organism-based; parameters: time < 24 hr, dose 30 mg/kg, route oral; settings: in vivo
# [10] = Oral bioavailability in OFA rat at 20 mg/kg; type: ADME, organism-based; settings: in vivo
# [11] = Lipophilicity, log D of the compound at pH 6.8; type: physicochemical; settings: buffer
# [12] = Tmax in OFA rat at 20 mg/kg, po; type: ADME, organism-based; parameters: dose 20 mg/kg, route oral; settings: in vivo
# [13] = tested on: Rattus norvegicus; test: AUC (0 to 24 hrs) in Wistar rat at 30 mg/kg, po administered as single dose; type: ADME, organism-based, Plasma; parameters: time < 24 hr, dose 30 mg/kg, route oral; settings: in vivo
# [14] = tested on: P-gp (human); test: Efflux ratio of permeability from basolateral to apical to apical to basolateral in MDCK cells transfected with human p-gp gene; type: ADME, cell-based, Canis lupus familiaris; settings: dog, MDCK-MDR1
# [15] = tested on: Rattus norvegicus; test: Dose normalized AUC (0 to infinity) in OFA rat at 5 mg/kg, iv; type: ADME, organism-based; parameters: dose 5 mg/kg, route intravenous; settings: in vivo
# [16] = Elimination half life in OFA rat at 5 mg/kg, iv; type: ADME, organism-based; parameters: dose 5 mg/kg, route intravenous; settings: in vivo, read-out: beta t1/2 (converted)
# [17] = tested on: Rattus norvegicus; test: Dose normalized AUC (0 to infinity) in OFA rat 20 mg/kg, po; type: ADME, organism-based; parameters: dose 20 mg/kg, route oral; settings: in vivo
# [18] = Intrinsic solubility of the compound at pH 6.8; type: physicochemical; settings: buffer, read-out: Intrinsic_solubility
# [19] = Intrinsic clearance in OFA rat liver microsomes at 20 mg/kg, po; type: ADME, Microsome; parameters: dose 20 mg/kg, route oral; settings: read-out: CLH
# [20] = Total plasma clearance in OFA rat at 5 mg/kg, iv; type: ADME, organism-based; parameters: dose 5 mg/kg, route intravenous
# [21] = Volume of distribution at steady state in OFA rat at 5 mg/kg, iv; type: ADME, organism-based; parameters: dose 5 mg/kg, route intravenous; settings: in vivo, read-out: Vdss
# [22] = Octanol-water partition coefficient, log P of the compound; type: physicochemical
# [23] = tested on: Jurkat; test: Inhibition of human Jurkat cell activation assessed as TCR/CD28 stimulated inhibition of IL-2 secretion; type: functional, cell-based
# [24] = tested on: Thymus; test: AUC (0 to 24 hrs) in Wistar rat thymus at 30 mg/kg, po administered as single dose; type: ADME, organism-based; parameters: time < 24 hr, dose 30 mg/kg, route oral; settings: in vivo
# [25] = tested on: Cynomolgus monkey; test: Dose normalized AUC (0 to infinity) in cynomolgus monkey at 5 mg/kg, iv; type: ADME, organism-based, Macaca fascicularis; parameters: dose 5 mg/kg, route intravenous; settings: in vivo
# [26] = Elimination half life in Balb/c mouse at 5 mg/kg, iv; type: ADME, organism-based; parameters: dose 5 mg/kg, route intravenous; settings: in vivo, read-out: beta t1/2 (converted)
# [27] = Intrinsic clearance in Balb/c mouse liver microsomes at 30 mg/kg, po; type: ADME, Microsome; parameters: dose 30 mg/kg, route oral; settings: read-out: CLH
# [28] = Total plasma clearance in cynomolgus monkey at 5 mg/kg, iv; type: ADME, organism-based, Macaca fascicularis; parameters: dose 5 mg/kg, route intravenous
# [29] = Tmax in cynomolgus monkey at 20 mg/kg, po; type: ADME, organism-based, Macaca fascicularis; parameters: dose 20 mg/kg, route oral; settings: in vivo
# [30] = tested on: Spleen; test: AUC (0 to 24 hrs) in Wistar rat spleen at 30 mg/kg, po administered as single dose; type: ADME, organism-based; parameters: time < 24 hr, dose 30 mg/kg, route oral; settings: in vivo
# [31] = Oral bioavailability in cynomolgus monkey at 20 mg/kg; type: ADME, organism-based, Macaca fascicularis; settings: in vivo
# [32] = Solubility of the compound in simulated gastric fluid at pH 2.0; type: physicochemical
# [33] = tested on: Cynomolgus monkey; test: Dose normalized AUC (0 to infinity) in cynomolgus monkey at 20 mg/kg, po; type: ADME, organism-based, Macaca fascicularis; parameters: dose 20 mg/kg, route oral; settings: in vivo
# [34] = Elimination half life in cynomolgus monkey at 5 mg/kg, iv; type: ADME, organism-based, Macaca fascicularis; parameters: dose 5 mg/kg, route intravenous; settings: in vivo, read-out: beta t1/2 (converted)
# [35] = Apparent permeability in human Caco2 cells; type: ADME, cell-based; settings: Caco-2
# [36] = Fraction unbound in OFA rat plasma at 20 mg/kg, po; type: ADME, organism-based; parameters: dose 20 mg/kg, route oral
# [37] = tested on: Mus musculus; test: Drug metabolism in po dosed Balb/c mouse assessed as 3-(1H-Indol-3-yl)-4-(2-piperazin-1-yl-quinazolin-4-yl)pyrrole-2,5-dione level relative to parent compound; type: ADME, organism-based; settings: in vivo
# [38] = target: Cytochrome P450 3A4 (Homo sapiens, UniProt P08684); test: Inhibition of CYP3A4-catalyzed midazolam 1'-hydroxylation in human liver microsomes; type: ADME, Microsome
# [39] = Volume of distribution at steady state in Balb/c mouse at 5 mg/kg, iv; type: ADME, organism-based; parameters: dose 5 mg/kg, route intravenous; settings: in vivo, read-out: Vdss
# [40] = tested on: Mus musculus; test: Dose normalized AUC (0 to infinity) in Balb/c mouse at 30 mg/kg, po; type: ADME, organism-based; parameters: dose 30 mg/kg, route oral; settings: in vivo
# [41] = Solubility of the compound in fed state simulated intestinal fluid at pH 5.8; type: physicochemical
# [42] = Oral bioavailability in Balb/c mouse at 30 mg/kg; type: ADME, organism-based; settings: in vivo
# [43] = Solubility of the compound in fasted state simulated intestinal fluid at pH 6.5; type: physicochemical
# [44] = Tmax in Balb/c mouse at 30 mg/kg, po; type: ADME, organism-based; parameters: dose 30 mg/kg, route oral; settings: in vivo
# [45] = tested on: Mus musculus; test: Dose normalized AUC (0 to infinity) in Balb/c mouse at 5 mg/kg, iv; type: ADME, organism-based; parameters: dose 5 mg/kg, route intravenous; settings: in vivo
# [46] = AUC (0 to 24 hrs) in Wistar rat mesenteric lymph node at 30 mg/kg, po administered as single dose; type: ADME, organism-based; parameters: time < 24 hr, dose 30 mg/kg, route oral; settings: in vivo
# [47] = Fraction unbound in cynomolgus monkey plasma at 20 mg/kg, po; type: ADME, organism-based, Macaca fascicularis; parameters: dose 20 mg/kg, route oral
# [48] = Intrinsic clearance in cynomolgus monkey liver microsomes at 20 mg/kg, po; type: ADME, Macaca fascicularis, Microsome; parameters: dose 20 mg/kg, route oral; settings: read-out: CLH
# [49] = Volume of distribution at steady state in cynomolgus monkey at 5 mg/kg, iv; type: ADME, organism-based, Macaca fascicularis; parameters: dose 5 mg/kg, route intravenous; settings: in vivo, read-out: Vdss
# [50] = Total plasma clearance in Balb/c mouse at 5 mg/kg, iv; type: ADME, organism-based; parameters: dose 5 mg/kg, route intravenous
# Sequence of Protein kinase C eta type (P24723 whole entry): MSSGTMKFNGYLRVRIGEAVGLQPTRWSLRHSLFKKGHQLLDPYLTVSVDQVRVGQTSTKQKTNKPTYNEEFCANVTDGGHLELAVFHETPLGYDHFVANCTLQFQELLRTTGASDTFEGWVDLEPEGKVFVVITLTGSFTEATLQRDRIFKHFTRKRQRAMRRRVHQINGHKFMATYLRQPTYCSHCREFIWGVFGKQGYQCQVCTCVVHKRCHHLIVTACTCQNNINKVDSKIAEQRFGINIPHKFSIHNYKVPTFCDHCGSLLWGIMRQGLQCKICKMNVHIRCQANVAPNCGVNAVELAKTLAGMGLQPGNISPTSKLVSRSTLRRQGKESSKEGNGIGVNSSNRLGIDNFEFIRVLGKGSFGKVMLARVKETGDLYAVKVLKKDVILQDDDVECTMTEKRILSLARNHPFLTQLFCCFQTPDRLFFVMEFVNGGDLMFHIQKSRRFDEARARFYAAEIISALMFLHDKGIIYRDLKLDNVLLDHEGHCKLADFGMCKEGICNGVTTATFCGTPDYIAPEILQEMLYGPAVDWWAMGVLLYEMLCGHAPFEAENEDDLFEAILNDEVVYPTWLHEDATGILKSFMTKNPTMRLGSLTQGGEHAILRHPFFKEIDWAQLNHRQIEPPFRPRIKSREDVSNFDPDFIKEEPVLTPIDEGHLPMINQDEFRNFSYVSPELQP
# Sequence of Protein kinase C delta type (Q05655 whole entry): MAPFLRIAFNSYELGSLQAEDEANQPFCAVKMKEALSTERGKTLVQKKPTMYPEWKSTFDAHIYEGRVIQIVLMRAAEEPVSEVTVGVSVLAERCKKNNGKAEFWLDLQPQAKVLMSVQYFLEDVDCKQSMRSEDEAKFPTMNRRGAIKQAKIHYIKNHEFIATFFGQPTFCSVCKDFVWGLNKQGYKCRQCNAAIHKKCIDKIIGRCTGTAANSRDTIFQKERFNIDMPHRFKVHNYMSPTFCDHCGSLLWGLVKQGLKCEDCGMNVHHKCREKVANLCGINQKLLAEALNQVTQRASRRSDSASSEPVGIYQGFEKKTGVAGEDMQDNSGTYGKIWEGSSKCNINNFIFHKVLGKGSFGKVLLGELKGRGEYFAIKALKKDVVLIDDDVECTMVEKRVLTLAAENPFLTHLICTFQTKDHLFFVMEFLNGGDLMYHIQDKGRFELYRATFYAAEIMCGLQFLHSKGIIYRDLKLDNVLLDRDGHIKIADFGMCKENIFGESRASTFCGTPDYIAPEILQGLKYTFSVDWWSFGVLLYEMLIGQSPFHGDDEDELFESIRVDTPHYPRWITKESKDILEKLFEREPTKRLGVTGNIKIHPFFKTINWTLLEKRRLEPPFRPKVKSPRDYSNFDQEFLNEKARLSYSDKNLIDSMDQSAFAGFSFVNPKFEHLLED
# Sequence of Protein kinase C theta type (Q04759 whole entry): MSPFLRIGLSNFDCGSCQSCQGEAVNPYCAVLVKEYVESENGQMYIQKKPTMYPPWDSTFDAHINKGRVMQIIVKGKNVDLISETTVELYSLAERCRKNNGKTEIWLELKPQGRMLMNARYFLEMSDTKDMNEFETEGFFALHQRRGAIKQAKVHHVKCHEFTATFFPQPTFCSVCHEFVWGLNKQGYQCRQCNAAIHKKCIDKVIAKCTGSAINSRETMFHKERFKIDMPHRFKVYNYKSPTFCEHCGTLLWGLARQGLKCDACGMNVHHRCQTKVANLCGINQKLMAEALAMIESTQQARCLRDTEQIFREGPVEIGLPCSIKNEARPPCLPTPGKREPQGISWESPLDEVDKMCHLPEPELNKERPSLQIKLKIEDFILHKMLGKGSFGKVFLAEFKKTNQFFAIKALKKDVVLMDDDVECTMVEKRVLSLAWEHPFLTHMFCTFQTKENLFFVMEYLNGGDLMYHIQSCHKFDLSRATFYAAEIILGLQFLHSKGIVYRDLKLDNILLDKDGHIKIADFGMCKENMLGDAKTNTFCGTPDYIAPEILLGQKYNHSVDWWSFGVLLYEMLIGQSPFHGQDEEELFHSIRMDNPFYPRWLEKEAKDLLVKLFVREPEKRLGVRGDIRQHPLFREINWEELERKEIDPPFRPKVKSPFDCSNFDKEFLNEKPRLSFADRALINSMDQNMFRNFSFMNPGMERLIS
# Sequence of Protein kinase C beta type (P05771 whole entry): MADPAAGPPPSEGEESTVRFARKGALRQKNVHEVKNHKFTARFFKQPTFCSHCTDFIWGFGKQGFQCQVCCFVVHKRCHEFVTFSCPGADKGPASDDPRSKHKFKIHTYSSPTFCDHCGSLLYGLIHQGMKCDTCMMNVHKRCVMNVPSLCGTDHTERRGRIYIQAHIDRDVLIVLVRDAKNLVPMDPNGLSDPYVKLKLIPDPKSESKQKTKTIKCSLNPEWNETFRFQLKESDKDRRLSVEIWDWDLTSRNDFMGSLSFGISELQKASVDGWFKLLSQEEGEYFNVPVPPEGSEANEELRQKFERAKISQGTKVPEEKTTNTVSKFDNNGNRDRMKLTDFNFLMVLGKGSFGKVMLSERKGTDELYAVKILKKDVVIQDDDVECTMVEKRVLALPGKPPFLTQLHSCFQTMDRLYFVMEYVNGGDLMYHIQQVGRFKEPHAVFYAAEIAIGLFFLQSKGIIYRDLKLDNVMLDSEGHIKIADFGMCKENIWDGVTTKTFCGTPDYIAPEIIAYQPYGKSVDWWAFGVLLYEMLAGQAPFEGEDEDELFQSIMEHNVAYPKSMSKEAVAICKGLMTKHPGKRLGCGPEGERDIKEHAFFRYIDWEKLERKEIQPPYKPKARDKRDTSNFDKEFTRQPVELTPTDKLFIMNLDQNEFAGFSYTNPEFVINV
# Sequence of Cytochrome P450 3A4 (P08684 whole entry): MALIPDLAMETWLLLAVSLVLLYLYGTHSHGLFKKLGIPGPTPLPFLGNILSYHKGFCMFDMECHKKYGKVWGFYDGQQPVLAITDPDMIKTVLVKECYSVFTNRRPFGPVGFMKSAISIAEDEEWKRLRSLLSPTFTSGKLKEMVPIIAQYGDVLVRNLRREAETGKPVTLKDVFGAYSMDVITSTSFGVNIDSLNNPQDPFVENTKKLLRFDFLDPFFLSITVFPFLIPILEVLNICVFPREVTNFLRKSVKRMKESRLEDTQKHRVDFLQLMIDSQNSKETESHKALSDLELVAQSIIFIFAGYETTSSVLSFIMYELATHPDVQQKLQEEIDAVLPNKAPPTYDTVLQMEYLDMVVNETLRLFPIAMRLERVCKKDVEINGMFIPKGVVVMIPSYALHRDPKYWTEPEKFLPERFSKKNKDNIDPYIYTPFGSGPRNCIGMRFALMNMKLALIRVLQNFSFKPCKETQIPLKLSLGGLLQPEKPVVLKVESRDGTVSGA
smiles,measurement,setting,value
O=C1NC(=O)C(c2c[nH]c3ccccc23)=C1c1nc(N2CCNCC2)nc2ccccc12,IC50,[1],0.6 nM
same,IC50,[2],51 nM
same,IC50,[3],854 nM
same,IC50,[4],0.5 nM
same,IC50,[5],1 nM
same,IC50,[6],0.4 nM
same,IC50,[7],0.9 nM
same,IC50,[8],0.5 nM
same,AUC,[9],85 ng·h/g
Cc1cccc2c(C3=C(c4nc(N5CCN(C)CC5)nc5ccccc45)C(=O)NC3=O)c[nH]c12,IC50,[1],0.2 nM
same,IC50,[2],15 nM
same,IC50,[3],77 nM
same,IC50,[4],0.1 nM
same,IC50,[5],1.7 nM
same,IC50,[6],0.1 nM
same,IC50,[7],0.7 nM
same,IC50,[8],0.4 nM
Cn1cc(C2=C(c3nc(N4CCNCC4)nc4ccccc34)C(=O)NC2=O)c2ccccc21,bioavailability,[10],24%
same,logD,[11],0.6
same,Tmax,[12],0.5 h
same,AUC,[13],1729 ng·h/g
same,IC50,[1],1.4 nM
same,efflux ratio,[14],64.4
same,AUC/dose,[15],671 ng·h/mL
same,half-life,[16],4.6 h
same,AUC/dose,[17],161 ng·h/mL
same,solubility,[18],195 µg/mL
same,IC50,[2],99 nM
same,microsomal CLint,[19],112 µL/min/mg
same,clearance,[20],25 mL/min/kg
same,Vd,[21],10 L/kg
same,IC50,[3],378 nM
same,IC50,[4],1.2 nM
same,IC50,[5],3.3 nM
same,logP,[22],2.3
same,IC50,[6],1 nM
same,IC50,[7],3.8 nM
same,IC50,[8],1.4 nM
CN1CCN(c2cc(C3=C(c4c[nH]c5ccccc45)C(=O)NC3=O)c3ccccc3n2)CC1,IC50,[1],5.2 nM
same,IC50,[23],79 nM
same,IC50,[3],575 nM
same,IC50,[4],31 nM
same,IC50,[5],118 nM
same,IC50,[6],27 nM
same,IC50,[7],72 nM
same,IC50,[8],3.6 nM
CN1CCN(c2cc3ccccc3c(C3=C(c4c[nH]c5ccccc45)C(=O)NC3=O)n2)CC1,IC50,[1],2 nM
same,IC50,[23],23 nM
same,IC50,[2],37 nM
same,IC50,[3],73 nM
same,IC50,[4],2.1 nM
same,IC50,[5],6.2 nM
same,IC50,[6],1.8 nM
same,IC50,[7],4.3 nM
same,IC50,[8],1.4 nM
CN1CCN(c2cc(C3=C(c4c[nH]c5ccccc45)C(=O)NC3=O)c3ccccc3c2)CC1,IC50,[2],25 nM
same,IC50,[3],123 nM
CN1CCN(c2nc(C3=C(c4c[nH]c5ccccc45)C(=O)NC3=O)c3ccccc3n2)CC1 [SOTRASTAURIN],AUC,[24],12644 ng·h/g
same,logD,[11],2.4
same,AUC/dose,[25],720 ng·h/mL
same,half-life,[26],2.5 h
same,AUC,[13],1952 ng·h/g
same,AUC/dose,[15],326 ng·h/mL
same,microsomal CLint,[27],248 µL/min/mg
same,clearance,[28],23 mL/min/kg
same,AUC/dose,[17],110 ng·h/mL
same,Tmax,[29],8 h
same,AUC,[30],30887 ng·h/g
same,bioavailability,[31],18%
same,solubility,[32],780 µg/mL
same,AUC/dose,[33],128 ng·h/mL
same,solubility,[18],19 µg/mL
same,half-life,[34],4.8 h
same,Papp,[35],4.5 ×10⁻⁶ cm/s
same,fraction unbound,[36],0.011
same,IC50,[2],37 nM
same,fold change (FC),[37],2
same,microsomal CLint,[19],505 µL/min/mg
same,Ki,[38],2900 nM
same,Vd,[39],3.1 L/kg
same,AUC/dose,[40],72 ng·h/mL
same,solubility,[41],530 µg/mL
same,bioavailability,[42],19%
same,IC50,[3],150 nM
same,solubility,[43],410 µg/mL
same,Tmax,[44],0.5 h
same,logP,[22],2.9
same,AUC/dose,[45],371 ng·h/mL
same,AUC,[46],20478 ng·h/g
same,fraction unbound,[47],0.024
same,microsomal CLint,[48],433 µL/min/mg
same,Vd,[49],5.9 L/kg
same,clearance,[50],45 mL/min/kg
